In EP4737452A1, “NOVEL PYRIMIDINE DERIVATIVES” (Aigen Sciences Inc., priority 2023, dated 2025):
Read-outs that look alike come from different tables or passages of the source.

What was measured:
USP1 enzyme = USP1 enzyme (Homo sapiens, UniProt O94782); assay: Biochemical analysis of USP1 enzyme activity (ubiquitin-rhodamine 110 deubiquitination, fluorescence); conditions: ubiquitin-rhodamine 110 substrate, 10 minutes pre-incubation, 30 minutes reaction at room temperature; read-out: Enzyme activity IC50 grade
Sequence of USP1 enzyme (O94782 whole entry): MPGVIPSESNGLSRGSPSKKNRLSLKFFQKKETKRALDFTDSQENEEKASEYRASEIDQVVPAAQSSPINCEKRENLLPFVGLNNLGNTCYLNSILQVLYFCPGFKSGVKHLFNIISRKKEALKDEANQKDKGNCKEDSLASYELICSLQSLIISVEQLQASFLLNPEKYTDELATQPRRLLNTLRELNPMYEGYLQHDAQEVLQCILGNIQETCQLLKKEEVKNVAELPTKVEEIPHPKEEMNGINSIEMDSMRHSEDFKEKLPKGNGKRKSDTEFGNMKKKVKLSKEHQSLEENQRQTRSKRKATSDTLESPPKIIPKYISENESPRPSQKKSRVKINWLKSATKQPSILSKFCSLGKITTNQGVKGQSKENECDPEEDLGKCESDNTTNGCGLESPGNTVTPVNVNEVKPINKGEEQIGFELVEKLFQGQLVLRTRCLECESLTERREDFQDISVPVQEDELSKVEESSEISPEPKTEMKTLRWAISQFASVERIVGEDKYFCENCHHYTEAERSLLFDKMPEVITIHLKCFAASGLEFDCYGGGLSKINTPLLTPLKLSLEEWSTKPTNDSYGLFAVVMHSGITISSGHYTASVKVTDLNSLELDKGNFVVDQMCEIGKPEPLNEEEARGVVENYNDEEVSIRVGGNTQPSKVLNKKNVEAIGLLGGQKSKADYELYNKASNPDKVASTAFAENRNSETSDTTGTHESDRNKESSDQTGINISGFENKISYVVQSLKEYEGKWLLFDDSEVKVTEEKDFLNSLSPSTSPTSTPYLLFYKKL
Sequence of USP1 enzyme (Q8TAF3 whole entry partner): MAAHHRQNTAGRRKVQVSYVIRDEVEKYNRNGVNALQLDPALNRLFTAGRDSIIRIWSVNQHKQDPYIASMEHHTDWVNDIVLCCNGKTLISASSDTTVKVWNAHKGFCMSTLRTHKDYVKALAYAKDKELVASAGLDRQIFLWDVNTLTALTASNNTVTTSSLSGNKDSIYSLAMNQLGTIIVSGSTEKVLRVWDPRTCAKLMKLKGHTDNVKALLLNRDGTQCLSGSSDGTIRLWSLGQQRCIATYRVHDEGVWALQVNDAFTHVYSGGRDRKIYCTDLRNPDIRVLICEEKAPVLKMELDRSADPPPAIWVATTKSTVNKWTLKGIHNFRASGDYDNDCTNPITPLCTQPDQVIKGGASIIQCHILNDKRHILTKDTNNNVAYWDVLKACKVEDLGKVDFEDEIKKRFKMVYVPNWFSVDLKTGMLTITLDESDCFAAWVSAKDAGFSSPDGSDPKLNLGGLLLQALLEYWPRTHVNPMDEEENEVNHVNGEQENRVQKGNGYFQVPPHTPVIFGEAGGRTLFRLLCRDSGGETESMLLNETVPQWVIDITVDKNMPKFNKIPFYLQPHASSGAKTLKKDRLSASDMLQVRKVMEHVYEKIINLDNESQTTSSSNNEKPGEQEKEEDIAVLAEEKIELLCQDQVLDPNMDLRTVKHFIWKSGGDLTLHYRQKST
Procedure: In this experimental example, the inhibitory effect of the compounds according to the present invention and the positive control compound on USP1 deubiquitinating activity was tested using a biochemical enzymatic assay. Ubiquitin-rhodamine 110 was used as a substrate for measuring deubiquitinating activity. This substrate compound is a substance in which rhodamine 110 is linked to the glycine residue at the C-terminus of ubiquitin by an amide bond. When this amide bond is cleaved by the deubiquitinating activity, a fluorescent signal is counted.
Subsequently, analytical buffer solution (50 mM hydroxyethylpiperazineethanesulfonic acid (HEPES) containing USP1 enzyme, 100 mM NaCl, 2 mM tris(2-carboxyethyl)phosphine (TCEP), and 100 µg/mL bovine serum albumin (BSA)) were added to each well of the plate and incubated at room temperature for 10 minutes. Subsequently, analytical y buffer solution containing ubiquitin-rhodamine 110 was added to each well and reacted at room temperature for 30 minutes.

MDA-MB-436 = assay: Cell survival analysis (CellTiter-Glo, 10 days culture); assay type: cell-based; conditions: Homo sapiens, read-out: Cell growth IC50 grade
Procedure: In this experimental example, the cell growth inhibitory effect of compounds according to the present invention and positive control compounds in tumor cell lines was examined.
MDA-MB-436 (ATCC, #HTB-130) cell line was cultured in cell culture medium (Leibovitz's L-15 (GIBCO catalog no. 11415064) + 10 µg/mL insulin (Yeasen catalog no. 40112ES25) + 16 µg/mL glutathione (GIBCO catalog no. 25030-081) + 10% fetal bovine serum (FBS) (Excell Bio catalog no. FSP500)). 3,000 MDA-MB-436 cells were plated per well in a 96-well plate and cultured for 1 day at 37°C in 5% CO2. […] The cells were then cultured in a cell incubator for 10 days, and the cell culture medium containing the compound was replaced on the 5th day of culture. Cell survival rate was analyzed for luminescence using the Promega CellTiter-Glo Luminescent Cell Viability Assay Kit (Promega catalog number G7573), and the luminescence was measured using a PerkinElmer EnVision instrument. The percentage of cell growth inhibition rate was calculated from the measured relative luminescence unit (RLU) as follows. Inhibition rate = 1−((RLU compound−RLU blank)/(RLU control−RLU blank)) × 100 [formula]

[1] = 240 h, MDA-MB-436 cell line, cultured for 10 days, CellTiter-Glo

SMILES | IC50 (USP1 enzyme) | IC50 (MDA-MB-436; [1]) | IC50 (MDA-MB-436; MDA-MB-436, 240 h)
Cc1cnn(C(C)C)c1-c1ncc(P(C)(C)=O)c(NCc2ccc(-c3nc(C(F)(F)F)cn3C)cc2)n1 [Example 3, (2-(1-isopropyl-4-methyl-1H-pyrazole-5-yl)-4-((4-(1-methyl-4-(trifluoromethyl)-1H-imidazol-2-yl)benzyl)amino)pyrimidin-5-yl)dimethylphosphine oxide] | > 100 nM | > 500 nM | 
CC(C)c1ncccc1-c1ncc(P(C)(C)=O)c(NCc2ccc(-c3nc(C(F)(F)F)cn3C)cc2)n1 [Example 4, (2-(2-isopropylpyridine-3-yl)-4-((4-(1-methyl-4-(trifluoromethyl)-1H-imidazol-2-yl)benzyl)amino)pyrimidin-5-yl)dimethylphosphine oxide] | > 100 nM | 100 to 500 nM | 
Cn1cc(C(F)(F)F)nc1-c1ccc(CNc2nc(-c3cccnc3OC(F)F)ncc2P(C)(C)=O)cc1 [Example 6, (2-(2-(difluoromethoxy)pyridin-3-yl)-4-((4-(1-methyl-4-(trifluoromethyl)-1H-imidazol-2-yl)benzyl)amino)pyrimidin-5-yl)dimethylphosphine oxide] | > 100 nM | 100 to 500 nM | 
COc1ncnc(C2CC2)c1-c1ncc(P(C)(C)=O)c(NCC23CCC(c4nc(C(F)(F)F)cn4C)(CC2)CC3)n1 [Example 10, (4'-cyclopropyl-6'-methoxy-4-(((4-(1-methyl-4-(trifluoromethyl)-1H-imidazol-2-yl)bicyclo[2.2.2]octan-1-yl)methyl)amino)-[2,5'-bipyrimidine]-5-yl)dimethylphosphine oxide] | 50 to 100 nM | 100 to 500 nM | 
COc1ncnc(C2CC2)c1-c1ncc(P(C)(C)=O)c(NCC23C4C5C2C2C3C4C52c2nc(C(F)(F)F)cn2C)n1 [Example 11, (4'-cyclopropyl-6'-methoxy-4-((((1s,2R,3s,4r,5S,6r,7R,8S)-4-(1-methyl-4-(trifluoromethyl)-1H-imidazol-2-yl)cuban-1-yl)methyl)amino)-[2,5'-bipyrimidine]-5-yl)dimethylphosphine oxide] | < 50 nM |  | < 100 nM
COc1ncnc(C2CC2)c1-c1ncc(P(C)(C)=O)c(NCc2ccc(-c3nc(C(F)(F)F)cn3C(C)C)c(F)c2)n1 [Example 13, (4'-cyclopropyl-4-((3-fluoro-4-(1-isopropyl-4-(trifluoromethyl)-1H-imidazol-2-yl)benzyl)amino)-6'-methoxy-[2,5'-bipyrimidine]-5-yl)dimethylphosphine oxide] | < 50 nM | < 100 nM | 
COc1ncnc(C2CC2)c1-c1ncc(P(C)(C)=O)c(NCc2ccc(-n3nc(C(F)(F)F)cc3C)c(F)c2)n1 [Example 14, (4'-cyclopropyl-4-((3-fluoro-4-(5-methyl-3-(trifluoromethyl)-1H-pyrazole-1-yl)benzyl)amino)-6'-methoxy-[2,5'-bipyrimidine]-5-yl)dimethylphosphine oxide] | < 50 nM | < 100 nM | 
COc1ncnc(C2CC2)c1-c1ncc(P(C)(C)=O)c(NCc2ccc(-n3nc(C(F)(F)F)cc3C(C)C)c(F)c2)n1 [Example 16, (4'-cyclopropyl-4-((3-fluoro-4-(5-isopropyl-3-(trifluoromethyl)-1H-pyrazol-1-yl)benzyl)amino)-6'-methoxy-[2,5'-bipyrimidine]-5-yl)dimethylphosphine oxide] | < 50 nM | < 100 nM | 
COc1ncnc(C2CC2)c1-c1ncc(P(C)(C)=O)c(NCc2ccc(-n3nc(C(F)(F)F)cc3C3CC3)cc2)n1 [Example 17, (4'-cyclopropyl-4-((4-(5-cyclopropyl-3-(trifluoromethyl)-1H-pyrazole-1-yl)benzyl)amino)-6'-methoxy-[2,5'-bipyrimidine]-5-yl)dimethylphosphine oxide] | < 50 nM | < 100 nM | 
COc1ncnc(C2CC2)c1-c1ncc(P(C)(C)=O)c(NCc2ccc(-n3nc(C(F)(F)F)cc3C3CC3)c(F)c2)n1 [Example 18, (4'-cyclopropyl-4-((4-(5-cyclopropyl-3-(trifluoromethyl)-1H-pyrazole-1-yl)-3-fluorobenzyl)amino)-6'-methoxy[2,5'-bipyrimidine]-5-yl)dimethylphosphine oxide] | < 50 nM | < 100 nM | 
Cc1cnc(-c2ccccc2C(C)C)nc1NCc1ccc(-n2ccnn2)cc1 [ML323, N-(4-(1H-1,2,3-triazol-1-yl)benzyl)-5-methyl-2-(2-isopropylphenyl)pyrimidin-4-amine, reference compound] |  | > 500 nM | 

Now from value to compound, other results behind:

IC50 (USP1 enzyme) | SMILES | IC50 (MDA-MB-436; [1]) | IC50 (MDA-MB-436; MDA-MB-436, 240 h)
50 to 100 nM | COc1ncnc(C2CC2)c1-c1ncc(P(C)(C)=O)c(NCc2ccc(-c3nc(C(F)(F)F)cn3C)cc2)n1 [Example 2, (4'-cyclopropyl-6'-methoxy-4-((4-(1-methyl-4-(trifluoromethyl)-1H-imidazol-2-yl)benzyl)amino)-[2,5'-bipyrimidine]-5-yl)dimethylphosphine oxide] | 100 to 500 nM | 
50 to 100 nM | [2H]C([2H])([2H])Oc1ncnc(C2CC2)c1-c1ncc(P(C)(C)=O)c(NCc2ccc(-c3nc(C(F)(F)F)cn3C)cc2)n1 [Example 5, (4'-cyclopropyl-6'-(methoxy-d3)-4-((4-(1-methyl-4-(trifluoromethyl)-1H-imidazol-2-yl)benzyl)amino)-[2,5'-bipyrimidine]-5-yl)dimethylphosphine oxide] | 100 to 500 nM | 
50 to 100 nM | COc1ncnc(C2CC2)c1-c1ncc(P(C)(C)=O)c(NCc2ccc(-c3nc(C(F)(F)F)cn3C)c(F)c2)n1 [Example 7, (4'-cyclopropyl-4-((3-fluoro-4-(1-methyl-4-(trifluoromethyl)-1H-imidazol-2-yl)benzyl)amino)-6'-methoxy-[2,5'-bipyrimidine]-5-yl)dimethylphosphine oxide] | < 100 nM | 
< 50 nM | COc1ncnc(C2CC2)c1-c1ncc(P(C)(C)=O)c(NCc2ccc(-c3nc(C(F)(F)F)cn3C3CC3)cc2)n1 [Example 8, (4'-cyclopropyl-4-((4-(1-cyclopropyl-4-(trifluoromethyl)-1H-imidazol-2-yl)benzyl)amino)-6'-methoxy-[2,5'-bipyrimidine]-5-yl)dimethylphosphine oxide] | < 100 nM | 
< 50 nM | COc1ncnc(C2CC2)c1-c1ncc(P(C)(C)=O)c(NCc2ccc(-n3nc(C(F)(F)F)cc3C)cc2)n1 [Example 9, (4'-cyclopropyl-6'-methoxy-4-((4-(5-methyl-3-(trifluoromethyl)-1H-pyrazole-1-yl)benzyl)amino)-[2,5'-bipyrimidine]-5-yl)dimethylphosphine oxide] | < 100 nM | 
50 to 100 nM | COc1ncnc(C2CC2)c1-c1ncc(P(C)(C)=O)c(NCc2ccc(-c3nc(C(F)(F)F)cn3C(C)C)cc2)n1 [Example 12, (4'-cyclopropyl-4-((4-(1-isopropyl-4-(trifluoromethyl)-1H-imidazol-2-yl)benzyl)amino)-6'-methoxy-[2,5'-bipyrimidine]-5-yl)dimethylphosphine oxide] | 100 to 500 nM | 
< 50 nM | COc1ncnc(C2CC2)c1-c1ncc(P(C)(C)=O)c(NCc2ccc(-n3nc(C(F)(F)F)cc3C(C)C)cc2)n1 [Example 15, (4'-cyclopropyl-4-((4-(5-isopropyl-3-(trifluoromethyl)-1H-pyrazole-1-yl)benzyl)amino)-6'-methoxy-[2,5'-bipyrimidine]-5-yl)dimethylphosphine oxide] | < 100 nM | 
